Experimental data as given in patent EP1992228A1, “Insecticidal substituted thiourea derivatives” (Bayer CropScience AG, priority 2007, dated 2008).

What was measured:
[1] = system: Myzus persicae; assay: Myzus persicae-test (MYZUPE, spray application); format: in vivo; settings: spray on Chinese cabbage leaf-disks, green peach aphid, all instars; for mortality at 100 g/ha: application rate of 100 g/ha; for mortality at 500 g/ha: application rate of 500 g/ha
Experimental: Myzus persicae-test (MYZUPE, spray application) [table] [table] To produce a suitable preparation of active compound, 1 part by weight of active compound is mixed with the stated amount of solvent and emulsifier, and the concentrate is diluted with emulsifier-containing water to the desired concentration. Chinese cabbage (Brassica pekinensis) leaf-disks infected with all instars of the green peach aphid (Myzus persicae), are sprayed with a preparation of the active ingredient at the desired concentration. After the specified period of time, mortality in % is determined. 100 % means that all aphids have been killed; 0 % means that none of the […] have been killed.

[2] = system: Tetranychus urticae; assay: Tetranychus-test, OP-resistant (TETRUR, spray application); format: in vivo; settings: application rate of 100 g/ha, spray on French bean, two spotted spidermite, all stages
Experimental: Tetranychus-test, OP-resistant (TETRUR, spray application)
(§1) To produce a suitable preparation of active compound, 1 part by weight of active compound is mixed with the stated amount of solvent and emulsifier, and the concentrate is diluted with emulsifier-containing water to the desired concentration.
French bean (Phaseolus vulgaris) which are heavily infested with all stages of the two spotted spidermite (Tetranychus urticae), are sprayed with a preparation of the active ingredient at the desired concentration.
After the specified period of time, mortality in % is determined. 100 % means that all spider mites have been killed; 0 % means that none of the […] have been killed.

[3] = system: Boophilus microplus; assay: Boophilus microplus-test (injektion); format: in vivo; settings: application rate of 20 µg/animal; injected in the abdomen
Experimental: Boophilus microplus-test (injektion)
as §1
The solution of the active compound is injected in the abdomen (Boophilus microplus); the animals are transferred into a cup and stayed in a rooming with an air condition.
After the specified period of time, the efficiany mortality in % is determined. 100 % means that no tick has lay fertile eggs.

[4] = logP (HCOOH) determination; format: physicochemical
[5] = system: Meloidogyne incognita; assay: Meloidogyne-test, OP resistant (MELGIN spray application); format: in vivo; settings: application rate of 20 ppm, sand with egg/larval suspension and lettuce seeds, read-out: activity (nematicidal efficacy in % with reference to gall formation)
Experimental: Meloidogyne-test, OP resistant (MELGIN spray application)
as §1
Containers are filled with sand, active compound solution, Meloidogyne incognita egg/larval suspension and lettuce seeds. The lettuce seeds germinate and the plantlets develop. The galls develop on the roots.
After the desired time, the nematicidal efficacy is determined in % with reference to gall formation. 100 % means that no galls were found; 0 % means that the number of galls on the treated plants corresponds to that of the untreated control.

Structure (SMILES) | efficiency (100 % means that no tick has lay fertile eggs) [3] [%] | mortality at 500 g/ha [1] [%] | other results
C[C@H](NC(=S)NCCO)c1ccccc1F [compound 6] | ≥ 80 |  | mortality at 100 g/ha [1]: ≥ 80%; mortality at 100 g/ha [2]: ≥ 80%
CC(NC(=S)NCCO)c1cccc(F)c1 (centres unmarked) [compound 3] | ≥ 80 |  | mortality at 100 g/ha [1]: ≥ 80%
C[C@H](NC(=S)NCCO)c1ccc(F)cc1 [compound 8] |  | ≥ 80 | 
CC[C@H](NC(=S)NCCO)c1ccccc1 [compound 13] |  | ≥ 80 | 
C[C@H](NC(=S)NCCO)c1ccc(F)cc1 [EXAMPLE 1] |  |  | chromatographic logP [4]: 1.52
C[C@H](NC(=S)NCCO)c1ccccc1F [EXAMPLE 2] |  |  | chromatographic logP [4]: 1.5
C[C@H](NC(=S)NCCO)c1ccccc1 [compound 5] |  | ≥ 80 | 
C[C@H](NC(=S)NCCO)c1ccc(Cl)cc1 [Compound No. 158] | ≥ 80 | ≥ 80 | mortality at 100 g/ha [2]: ≥ 80%; inhibition at 20 ppm [5]: ≥ 80%
